Measured values from patent US9273318B2, “Induction of thyroid iodide-handling gene expression in human cancers” (THE JOHNS HOPKINS UNIVERSITY, priority 2008, dated 2016).
Entries after “also recorded” stand apart in the source; their conditions may differ. Like-named read-outs stand apart in the source and are kept apart here.

Tests used:
[1] = system: phosphorylation of ERK (p-ERK); details: NPA cells, U0126 10 μM, 30 h
Description: Cells were lysed for Western blotting assay.
(§1) FIG. 7A-7C. […] Cells were lysed for Western blotting assay.
Cells were lysed in RIPA buffer.

[2] = system: phosphorylation of ERK (p-ERK); details: KAT10 cells, U0126 10 μM, 30 h
Description: as §1

[3] = system: thyroid iodide-handling genes (NIS, TSHR, Tg, TPO, FOXE1, TTF1); experiment: RT-PCR / quantitative RT-PCR of thyroid iodide-handling genes, NPA cells; type: cell-based, human; details: U0126 10 μM, Akti IV 0.5 μM, 30 h
[4] = system: thyroid genes (Tg, TSHR, NIS, TTF-1, TTF2); experiment: Quantitative real-time PCR of thyroid iodide-metabolizing genes, KAT10 cells; type: cell-based, human; details: U0126 10 μM, Akti IV 2 μM, 30 h
NIS protein [5] = experiment: Flow cytometry and immunofluorescence of NIS protein expression, NPA cells; type: cell-based, human; details: U0126 10 μM, Akti IV 0.5 μM, 30 h, control 3.4%
Experimental: (§2) FIG. 6A-6D. […] After a serum starvation for 24 h, total RNA was isolated for expression analysis for the indicated thyroid iodide-metabolizing genes. RT-PCR analysis was performed for the expression of NIS in NPA cells. FIG. 6B) Flow cytometric measurement of NIS protein expression. NPA cells were treated with specific inhibitors (upper panel) as described in FIG. 1 or stably transfected with specific siRNAs to knock down BRAF and Akt-1/2, individually or in combination as described in FIG. 3 (lower panel). NIS protein levels were measured by flow cytometry. […] After a 30-h combined treatment with both U0126 and Akti IV (as in FIG. 6B), cells were analyzed by immunofluorescent microscopy using anti-NIS and FITC-coupled secondary antibody and double immunofluorescence with the red color representing 7-AAD nuclear staining and the green color representing NIS expression and localization. […] Cells were then washed and harvested for radioactivity measurement using a gamma-counter as described in the Materials and Methods. Data are expressed as the mean±SD of values from three assays. **, P<0.01, compared with control or empty vector.
(§3) FIG. 14A-14C. […] NIS protein levels were measured by flow cytometry. […] Cells were then washed and harvested for radioactivity measurement using a gamma-counter as described in the Experimental Procedures. […]

NIS protein [6] = experiment: Flow cytometry and immunofluorescence of NIS protein expression, KAT10 cells; type: cell-based, human; details: U0126 10 μM, Akti IV 2 μM, control 8.8%
Experimental: FIG. 14A-14C. […] FIG. 14A) Flow cytometric measurement of NIS protein expression. […] NIS protein levels were measured by flow cytometry. The blue frames indicate the cells expressing NIS protein, including dead (right upper quadrant; positive for both 7-AAD and NIS) and living (right lower quadrant, positive only for NIS) cells. FIG. 14B) Immunofluorescent localization of NIS. After a 30-h combined treatment with both Akti IV and U0126 (as in FIG. 14A), cells were analyzed by immunofluorescent microscopy using anti-NIS and FITC-coupled secondary antibody and double immunofluorescence with the red color representing 7-AAD nuclear staining and the green color representing NIS expression and localization. […] FIG. 14C) In vitro radioiodide uptake. […] Cells were subsequently incubated with 1 μCi Na125I/0.5 ml/well on 12-well plates for 1 h. Cells were then washed and harvested for radioactivity measurement using a gamma-counter as described in the Experimental Procedures. Data are expressed as the mean±SD of values from three assays. **, P<0.01, compared with control or empty vector. […]

NPA cells [7] = experiment: Radioactive iodide uptake assay, NPA cells; type: cell-based, human; details: NPA cells treated with inhibitors, 1 μCi Na125I, 1 h
Experimental: as §2, §3

KAT10 cells [8] = experiment: Radioactive iodide uptake assay, KAT10 cells; type: cell-based, human; details: KAT10 cells treated with inhibitors, 1 μCi Na125I, 1 h
Experimental: FIG. 14A-14C. […] FIG. 14A) Flow cytometric measurement of NIS protein expression. […] NIS protein levels were measured by flow cytometry. The blue frames indicate the cells expressing NIS protein, including dead (right upper quadrant; positive for both 7-AAD and NIS) and living (right lower quadrant, positive only for NIS) cells. FIG. 14B) Immunofluorescent localization of NIS. After a 30-h combined treatment with both Akti IV and U0126 (as in FIG. 14A), cells were analyzed by immunofluorescent microscopy using anti-NIS and FITC-coupled secondary antibody and double immunofluorescence with the red color representing 7-AAD nuclear staining and the green color representing NIS expression and localization. […] FIG. 14C) In vitro radioiodide uptake. […] Cells were subsequently incubated with 1 μCi Na125I/0.5 ml/well on 12-well plates for 1 h. Cells were then washed and harvested for radioactivity measurement using a gamma-counter as described in the Experimental Procedures. Data are expressed as the mean±SD of values from three assays. **, P<0.01, compared with control or empty vector.
Thyroid cancer cells (1×10^6 cells/well) treated under the indicated conditions were seeded in 12-well plates. […] Cells were collected and radioactivity was counted by a gamma-counter.

NPA cells [9] = experiment: MTT cell proliferation assay, NPA cells; details: 4 μM U0126, 0.2 μM Akti IV, 5-day course
Experimental: FIG. 1B) Inhibition of cell proliferation by suppression of MAPK and PI3K/Akt pathways achieved with U0126 and Akti IV individually or in combination (U+A) as indicated. MTT assay was performed to evaluate cell proliferation over a 5-day course of treatment with U0126 and Akti IV.
(§4) FIG. 7B) Inhibition of thyroid cancer cell proliferation by suppression of PI3K/Akt and MAP kinase pathways achieved with Akti IV and U0126 individually or in combination (U+A) as indicated. MTT assay was performed to evaluate cell proliferation over a 5-day course of treatment with Akti IV and U0126.

KAT10 cells [10] = experiment: MTT cell proliferation assay, KAT10 cells; details: 4 μM U0126, 1 μM Akti IV, 5-day course
Experimental: as §4

[11] = system: phosphorylation of Akt (p-Akt); experiment: Western blotting of phosphorylated Akt in NPA cells; details: Akti IV 0.5 μM, 30 h
Experimental: FIGS. 1A-1C Effects of suppression of the MAPK and PI3K/Akt pathways by specific inhibitors on NPA cells. FIG. 1A) Inhibition of ERK and Akt phosphorylation by suppression of MAPK and PI3K/Akt pathways using the MEK-specific inhibitor U0126 and the Akt-specific inhibitor Akti IV, respectively. NPA cells were treated with U0126 at 10 μM, or with Akti IV at 0.5 μM for 30 h. Cells were lysed for Western blotting assay. The activities of MAPK and PI3K/Akt pathways were reflected by the level of phosphorylated ERK and Akt detected with specific anti-phosphorylated ERK (p-ERK) and anti-phosphorylated Akt (p-Akt) antibodies. Immunoblotting with antibody against β-actin was used for quality control.
Effects of suppression of the PI3K/Akt and MAP kinase pathways by specific inhibitors on thyroid cancer cells. FIG. 7 A) Inhibition of Akt and ERK phosphorylation by suppression of PI3K/Akt and MAP kinase pathways using the Akt-specific inhibitor Akti IV and the MEK-specific inhibitor U0126, respectively. NPA and KAT10 cells were treated with Akti IV at 0.5 and 2 μM, respectively, or with U0126 at 10 μM for 30 h. Cells were lysed for Western blotting assay. The activities of PI3K/Akt and MAP kinase pathways were reflected by the level of phosphorylated Akt and ERK detected with specific anti-phosphorylated Akt (p-Akt) and anti-phosphorylated ERK (p-ERK) antibodies. […]

[12] = system: phosphorylation of Akt (p-Akt); experiment: Western blotting of phosphorylated Akt in KAT10 cells; details: Akti IV 2 μM, 30 h
Experimental: Effects of suppression of the PI3K/Akt and MAP kinase pathways by specific inhibitors on thyroid cancer cells. […] NPA and KAT10 cells were treated with Akti IV at 0.5 and 2 μM, respectively, or with U0126 at 10 μM for 30 h. Cells were lysed for Western blotting assay. The activities of PI3K/Akt and MAP kinase pathways were reflected by the level of phosphorylated Akt and ERK detected with specific anti-phosphorylated Akt (p-Akt) and anti-phosphorylated ERK (p-ERK) antibodies. Immunoblotting with antibody against β-actin was used for quality control.
Cells were lysed in RIPA buffer (Santa Cruz, Calif.). Cellular proteins were resolved by electrophoresis on a SDS-polyacrylamide (10%) gel (SDS-PAGE), transferred onto PVDF membranes (Amersham Pharmacia Biotech, Piscataway, N.J.), and immunoblotted with specific primary antibodies. Anti-BRAF (Sc-166), anti-phospho-Akt-1/2/3 (Sc-7985-R), anti-phospho-ERK (Sc-7383), and anti-Actin (Sc-1616-R) were purchased from Santa Cruz (Santa Cruz, Calif.). Anti-Akt-1 (#2967) and anti-Akt-2 (#2964) were purchased from Cell Signaling Technologies, Inc. (Beverly, Mass.). Antigen-antibody complexes were visualized using HRP-conjugated anti-mouse (Sc-2005, Santa Cruz, Calif.) or anti-rabbit (Sc-2004, Santa Cruz, Calif.) IgG antibodies and ECL Western Blotting Analysis System (Amersham Pharmacia).

| SMILES | inhibition of phosphorylation of ERK (p-ERK) [1] | inhibition of phosphorylation of ERK (p-ERK) [2] | expression of iodide-handling genes (NIS, TSHR, Tg, TTF1) [3] | expression of thyroid genes (Tg, TSHR, NIS, TTF1) [4] | NIS expression (cells expressing NIS protein, flow cytometry) (NIS protein [5]) [%] | NIS expression (cells expressing NIS protein, flow cytometry) (NIS protein [6]) [%] | radioiodide uptake (NPA cells [7]) | Na125I uptake (KAT10 cells [8]) | inhibition of cell proliferation (MTT) (NPA cells [9]) | inhibition of cell proliferation (MTT) (KAT10 cells [10]) | inhibition of phosphorylation of Akt (p-Akt) [11] | inhibition of phosphorylation of Akt (p-Akt) [12] |
| --- | --- | --- | --- | --- | --- | --- | --- | --- | --- | --- | --- | --- |
| N#CC(=C(/N)Sc1ccccc1N)/C(C#N)=C(\N)Sc1ccccc1N [U0126] | strongly inhibited | strongly inhibited | restored; also recorded: induced or dramatically enhanced | restored | 6 | 11.8 | significantly increased | significantly increased | partially | partially | – | – |
| CC[n+]1c(/C=C/N(C)c2ccccc2)n(-c2ccccc2)c2ccc(-c3nc4ccccc4s3)cc21.[I-] [Akti IV, Akt inhibitor IV] | – | – | restored; also recorded: induced or dramatically enhanced | restored | 13.7 | 29 | significantly increased | significantly increased | partially | partially | strongly inhibited | strongly inhibited |
